Measurements taken from ChEMBL document CHEMBL1129674, “Design, synthesis, and biological activity of a potent inhibitor of the neuropeptidase N-acetylated alpha-linked acidic dipeptidase” (J Med Chem, 1996).

What was measured:
Type in all cases: functional
Rattus norvegicus [1] = species on record: Rattus norvegicus; assay: In vitro effect KCL-Evoked Giutamate at 0.1 nM
Rattus norvegicus [2] = species on record: Rattus norvegicus; assay: In vitro effect KCL-Evoked Glutamate at 1.0 nM
Rattus norvegicus [3] = species on record: Rattus norvegicus; assay: In vitro effect KCL-Evoked Giutamate at 10.0 nM
Rattus norvegicus [4] = species on record: Rattus norvegicus; assay: In vitro effect of compound on Basal Glutamate Efflux at 1.0 nM
Rattus norvegicus [5] = species on record: Rattus norvegicus; assay: In vitro effect of compound on Basal Glutamate Efflux at 0.1 nM
Rattus norvegicus [6] = species on record: Rattus norvegicus; assay: In vitro effect of compound on Basal Glutamate Efflux at 10.0 nM

O=C(O)CCC(CP(=O)(O)O)C(=O)O (stereo unspecified)
Release (Rattus norvegicus [1]): 316
Release (Rattus norvegicus [2]): 368
Release (Rattus norvegicus [3]): 437
Efflux (Rattus norvegicus [4]): 137%
Efflux (Rattus norvegicus [5]): 151%
Efflux (Rattus norvegicus [6]): 167%
